The source of these data is patent US12371428B2 (Exelixis, Inc., priority 2019, dated 2025).

Read-outs that look alike come from different tables or passages of the source.

Type in all cases: cell-based
The target in experiment [1] is AXL (phospho-AXL, Gas6-stimulated A-172 glioblastoma cells) (Homo sapiens (Human), UniProt P30530). Nature of the experiment: AXL autophosphorylation ELISA in A-172 cells (Example E). To be noted: cellular activity, read-out: Axl IC50. As to the method:
A-172 cells were incubated at 37° C., 5% CO2 for 24 h and then starved for 24 h in serum-free medium. Test compounds were serially diluted to produce an 8-point dose curve in fresh serum-free medium to a final concentration of 0.3% DMSO (vehicle) and added to the cells and incubated for 1 h. […] Lysates were collected and 100 μL/well added into the human phospho-AXL DuoSet IC ELISA (R&D Systems #DYC2228-2). […] Positive control wells (100% activity) contained Gas6-stimulated, DMSO-treated cell lysates. Negative control wells (0% activity) contained Gas6-stimulated, reference inhibitor-treated cell lysates. IC50 values were calculated by nonlinear regression analysis using a 4-parameter logistic curve fit in ActivityBase XE (IDBS).

For experiment [2], the target named is Met (phospho-Met, HGF-stimulated PC-3 prostate cancer cells) (Homo sapiens (Human), UniProt P08581). As to the kind of experiment: Met autophosphorylation ELISA in PC-3 cells (Example F). To be noted: cellular activity, read-out: c-Met IC50. The gist of the method: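 IC50 values derive from a 4-parameter logistic fit of phospho-Met (panTyr) sandwich ELISA signals in PC-3 lysates, scaled between DMSO and reference-inhibitor wells. Cells, starved 3 h in serum-free medium, had 1 h compound exposure (8 doses, 0.3% DMSO) before 10 min stimulation with 100 ng/mL HGF.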
(In general: In an ELISA, binding on a coated surface is turned into a signal by an enzyme label.)

For experiment [3], the target named is KDR (phospho-KDR, VEGF165-stimulated HUVEC cells) (Homo sapiens (Human), UniProt P35968). Nature of the experiment: KDR autophosphorylation ELISA in HUVEC cells (Example G). To be noted: cellular activity; KDR autophosphorylation ELISA in HUVEC cells. In a few lines:
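Read-out is phospho-KDR measured by ELISA in lysates of VEGF165-stimulated (100 ng/mL, 5 min) HUVEC that were serum-starved 24 h and then pre-exposed 1 h to compound across 8 doses in 0.3% DMSO. Unstimulated lysates defined 0% and stimulated vehicle lysates 100% activity; IC50 values come from 4-parameter logistic regression.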

In experiment [4] the target is Mer (phospho-Mer, MERTK-transfected 293A cells) (Homo sapiens (Human), UniProt Q12866). As to the kind of experiment: Mer autophosphorylation ELISA in transient transfected 293A cells (Example H). Particulars: cellular activity. In a few lines:
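MERTK-transfected 293A; 8-pt dose, 1 h, serum-free, 0.3% DMSO. Cold lysis with orthovanadate and protease/phosphatase inhibitors. Phospho-Mer by DuoSet IC ELISA vs phospho-Mer standard. IC50: 4-PL fit; DMSO = 100%, reference inhibitor = 0%.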

The mark [5] stands for this setting: AXL autophosphorylation ELISA in A-172 cells.
Where [6] appears, read: Met autophosphorylation ELISA in PC-3 cells.
Where [7] appears, read: Mer autophosphorylation ELISA in transient transfected 293A cells.

AXL (phospho-AXL, Gas6-stimulated A-172 glioblastoma cells), sequence (P30530 26-894): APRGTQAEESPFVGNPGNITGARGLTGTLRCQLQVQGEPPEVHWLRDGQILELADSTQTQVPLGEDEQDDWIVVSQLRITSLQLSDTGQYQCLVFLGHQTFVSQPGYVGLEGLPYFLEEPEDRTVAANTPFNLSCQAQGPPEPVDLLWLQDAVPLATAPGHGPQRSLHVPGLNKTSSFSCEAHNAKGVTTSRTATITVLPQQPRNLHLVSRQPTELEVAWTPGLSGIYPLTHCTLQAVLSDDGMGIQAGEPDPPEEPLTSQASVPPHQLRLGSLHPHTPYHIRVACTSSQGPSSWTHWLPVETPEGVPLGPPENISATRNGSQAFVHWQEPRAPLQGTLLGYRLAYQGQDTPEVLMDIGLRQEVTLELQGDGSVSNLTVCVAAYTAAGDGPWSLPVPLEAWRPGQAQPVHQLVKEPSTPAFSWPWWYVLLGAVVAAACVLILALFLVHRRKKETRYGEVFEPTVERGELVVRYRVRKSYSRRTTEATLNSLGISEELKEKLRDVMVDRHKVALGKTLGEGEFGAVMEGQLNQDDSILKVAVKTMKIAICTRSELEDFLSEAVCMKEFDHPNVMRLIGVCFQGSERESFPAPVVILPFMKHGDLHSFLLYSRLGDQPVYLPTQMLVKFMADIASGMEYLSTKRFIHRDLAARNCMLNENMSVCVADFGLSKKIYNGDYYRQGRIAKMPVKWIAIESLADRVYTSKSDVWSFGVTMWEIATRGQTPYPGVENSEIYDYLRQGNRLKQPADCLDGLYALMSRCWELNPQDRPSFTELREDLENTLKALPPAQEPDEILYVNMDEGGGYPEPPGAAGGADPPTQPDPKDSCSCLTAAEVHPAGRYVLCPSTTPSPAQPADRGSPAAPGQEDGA
Met (phospho-Met, HGF-stimulated PC-3 prostate cancer cells), sequence (P08581 25-1390): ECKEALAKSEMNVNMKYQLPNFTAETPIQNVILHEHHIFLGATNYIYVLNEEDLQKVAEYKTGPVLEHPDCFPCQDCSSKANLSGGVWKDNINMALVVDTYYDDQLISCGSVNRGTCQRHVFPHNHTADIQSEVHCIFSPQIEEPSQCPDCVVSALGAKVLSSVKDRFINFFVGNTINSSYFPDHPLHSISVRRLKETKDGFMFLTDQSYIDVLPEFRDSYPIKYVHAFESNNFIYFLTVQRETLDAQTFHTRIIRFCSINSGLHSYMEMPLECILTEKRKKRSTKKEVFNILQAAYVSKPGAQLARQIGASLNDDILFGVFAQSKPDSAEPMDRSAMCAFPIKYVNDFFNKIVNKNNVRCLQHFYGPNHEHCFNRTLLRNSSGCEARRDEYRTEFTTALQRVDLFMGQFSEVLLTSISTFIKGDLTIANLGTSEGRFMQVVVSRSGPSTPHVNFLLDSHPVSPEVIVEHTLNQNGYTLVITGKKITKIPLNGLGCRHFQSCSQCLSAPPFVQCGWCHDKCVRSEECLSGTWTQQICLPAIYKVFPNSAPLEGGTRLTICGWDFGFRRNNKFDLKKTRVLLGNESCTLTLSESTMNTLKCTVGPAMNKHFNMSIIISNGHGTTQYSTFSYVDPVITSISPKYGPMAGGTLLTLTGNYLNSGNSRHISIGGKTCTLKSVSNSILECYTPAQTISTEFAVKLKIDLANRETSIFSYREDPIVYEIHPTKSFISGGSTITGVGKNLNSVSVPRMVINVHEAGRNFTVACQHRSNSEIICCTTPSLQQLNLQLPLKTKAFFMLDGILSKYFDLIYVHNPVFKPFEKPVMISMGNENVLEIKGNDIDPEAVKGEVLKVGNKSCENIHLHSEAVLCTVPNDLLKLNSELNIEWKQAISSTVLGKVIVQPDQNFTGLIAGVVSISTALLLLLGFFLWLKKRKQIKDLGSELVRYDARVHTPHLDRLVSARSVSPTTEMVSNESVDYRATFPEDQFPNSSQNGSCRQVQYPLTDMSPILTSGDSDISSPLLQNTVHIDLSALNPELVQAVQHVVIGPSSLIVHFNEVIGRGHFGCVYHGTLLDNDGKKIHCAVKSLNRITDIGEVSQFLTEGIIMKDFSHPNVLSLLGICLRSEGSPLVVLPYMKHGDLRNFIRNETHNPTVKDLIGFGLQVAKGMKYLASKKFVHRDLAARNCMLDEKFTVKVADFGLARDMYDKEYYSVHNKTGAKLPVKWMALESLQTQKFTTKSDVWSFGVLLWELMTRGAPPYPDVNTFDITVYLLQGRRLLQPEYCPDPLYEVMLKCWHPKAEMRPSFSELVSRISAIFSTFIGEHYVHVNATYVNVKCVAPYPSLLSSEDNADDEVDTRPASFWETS
Mer (phospho-Mer, MERTK-transfected 293A cells), sequence (Q12866 21-999): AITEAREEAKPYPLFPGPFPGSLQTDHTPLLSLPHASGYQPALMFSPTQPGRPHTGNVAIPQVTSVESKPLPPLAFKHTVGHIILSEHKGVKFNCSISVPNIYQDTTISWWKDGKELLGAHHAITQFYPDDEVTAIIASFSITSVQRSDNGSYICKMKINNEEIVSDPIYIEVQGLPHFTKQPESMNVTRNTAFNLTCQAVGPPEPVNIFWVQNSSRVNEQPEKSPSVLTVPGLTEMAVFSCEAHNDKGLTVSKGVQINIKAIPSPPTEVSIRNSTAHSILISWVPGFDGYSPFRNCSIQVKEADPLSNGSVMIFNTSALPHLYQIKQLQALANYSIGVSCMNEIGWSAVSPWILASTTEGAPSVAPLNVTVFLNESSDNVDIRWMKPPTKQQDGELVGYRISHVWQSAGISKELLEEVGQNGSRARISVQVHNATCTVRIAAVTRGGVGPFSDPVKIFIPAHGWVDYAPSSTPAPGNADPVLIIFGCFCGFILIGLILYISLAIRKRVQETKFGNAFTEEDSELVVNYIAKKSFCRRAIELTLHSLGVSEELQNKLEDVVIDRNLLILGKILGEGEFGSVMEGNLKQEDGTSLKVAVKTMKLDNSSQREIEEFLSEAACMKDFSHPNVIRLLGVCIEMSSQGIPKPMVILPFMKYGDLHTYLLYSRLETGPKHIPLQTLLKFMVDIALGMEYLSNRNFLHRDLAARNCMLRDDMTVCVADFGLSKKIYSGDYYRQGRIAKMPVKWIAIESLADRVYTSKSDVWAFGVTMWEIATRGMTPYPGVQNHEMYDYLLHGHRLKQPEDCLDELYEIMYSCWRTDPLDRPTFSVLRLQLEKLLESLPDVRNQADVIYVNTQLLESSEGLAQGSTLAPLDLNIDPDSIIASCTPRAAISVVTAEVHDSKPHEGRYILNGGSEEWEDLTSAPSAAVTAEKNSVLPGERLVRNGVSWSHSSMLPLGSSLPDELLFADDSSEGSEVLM
KDR (phospho-KDR, VEGF165-stimulated HUVEC cells), sequence (P35968 20-1356): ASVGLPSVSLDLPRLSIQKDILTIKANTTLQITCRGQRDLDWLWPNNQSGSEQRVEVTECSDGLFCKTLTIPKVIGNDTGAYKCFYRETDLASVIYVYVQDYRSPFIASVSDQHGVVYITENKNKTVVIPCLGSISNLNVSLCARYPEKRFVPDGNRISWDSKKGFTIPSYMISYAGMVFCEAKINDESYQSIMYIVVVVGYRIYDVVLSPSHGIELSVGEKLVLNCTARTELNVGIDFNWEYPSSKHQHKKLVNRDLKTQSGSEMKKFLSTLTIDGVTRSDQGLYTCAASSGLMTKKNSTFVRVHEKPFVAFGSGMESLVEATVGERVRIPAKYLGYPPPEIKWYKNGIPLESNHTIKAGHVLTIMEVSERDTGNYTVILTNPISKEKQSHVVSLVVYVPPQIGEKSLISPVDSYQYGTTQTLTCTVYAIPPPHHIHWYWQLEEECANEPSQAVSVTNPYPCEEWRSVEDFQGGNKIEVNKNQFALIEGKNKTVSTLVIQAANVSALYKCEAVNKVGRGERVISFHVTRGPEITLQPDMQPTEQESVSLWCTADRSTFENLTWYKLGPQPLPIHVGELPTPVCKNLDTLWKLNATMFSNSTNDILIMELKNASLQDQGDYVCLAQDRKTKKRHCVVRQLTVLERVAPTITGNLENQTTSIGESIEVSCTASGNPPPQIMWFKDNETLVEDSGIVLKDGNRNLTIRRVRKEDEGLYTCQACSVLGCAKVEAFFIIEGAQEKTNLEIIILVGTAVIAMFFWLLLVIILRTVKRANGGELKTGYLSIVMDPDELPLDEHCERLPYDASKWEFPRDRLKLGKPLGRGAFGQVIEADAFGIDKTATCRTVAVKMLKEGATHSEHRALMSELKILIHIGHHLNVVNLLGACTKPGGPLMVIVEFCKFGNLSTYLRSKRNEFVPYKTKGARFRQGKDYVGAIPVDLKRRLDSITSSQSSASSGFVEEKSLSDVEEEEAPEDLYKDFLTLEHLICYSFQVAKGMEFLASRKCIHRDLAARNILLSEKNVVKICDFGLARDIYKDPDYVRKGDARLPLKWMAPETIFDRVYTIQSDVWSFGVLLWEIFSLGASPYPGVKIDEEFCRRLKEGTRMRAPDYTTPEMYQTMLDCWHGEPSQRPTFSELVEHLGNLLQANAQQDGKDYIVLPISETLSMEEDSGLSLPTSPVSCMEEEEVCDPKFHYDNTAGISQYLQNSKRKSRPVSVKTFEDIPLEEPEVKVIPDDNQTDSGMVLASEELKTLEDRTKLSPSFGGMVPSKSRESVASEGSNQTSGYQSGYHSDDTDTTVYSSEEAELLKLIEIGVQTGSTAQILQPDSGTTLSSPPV

The IC50 is the point on the concentration scale where inhibition reaches its midpoint. Consider `COc1cc2nccc(Oc3ccc(NC(=O)c4cn(C5(C)COC5)cc(-c5ccc(F)cc5)c4=O)cc3F)c2nc1OC` [Compound 54, N-[4-[(6,7-Dimethoxy-1,5-naphthyridin-4-yl)oxy]-3-fluorophenyl]-5-(4-fluorophenyl)-1-(3-methyloxetan-3-yl)-4-oxopyridine-3-carboxamide], for which the IC50 in experiment [1] (setting [5]) was below 100 nM; in experiment [2] (setting [6]), below 100 nM; in experiment [3] it was above 300 nM; in experiment [4] (setting [7]) it was below 100 nM.

As to `COc1ccc2nccc(Oc3ccc(NC(=O)c4c(C)ncc(-c5ccc(F)cc5C)c4O)cc3)c2n1` [Compound 493, 5-(4-fluoro-2-methylphenyl)-4-hydroxy-N-[4-[(6-methoxy-1,5-naphthyridin-4-yl)oxy]phenyl]-2-methylpyridine-3-carboxamide], the half-inhibitory concentration (IC50) in experiment [1] (setting [5]), in experiment [2] (setting [6]) and in experiment [4] (setting [7]) was below 100 nM each time.

For the compound `Cc1cc(C)n(-c2ccc(F)cc2)c(=O)c1C(=O)Nc1ccc(Oc2ccnc3cc(C(C)CO)cnc23)c(F)c1` (stereo not shown) [Compound 599, N-[3-Fluoro-4-[[7-(1-hydroxypropan-2-yl)-1,5-naphthyridin-4-yl]oxy]phenyl]-1-(4-fluorophenyl)-4,6-dimethyl-2-oxopyridine-3-carboxamide], the IC50 in experiment [1] (setting [5]), in experiment [2] (setting [6]) and in experiment [4] (setting [7]) was below 100 nM throughout.

Consider `COc1cc2nccc(Oc3ccc(NC(=O)c4nnc(C)c(-c5ccc(F)cc5)c4SC)cc3F)c2nc1OC` [Compound 602, N-[4-[(6,7-Dimethoxy-1,5-naphthyridin-4-yl)oxy]-3-fluorophenyl]-5-(4-fluorophenyl)-6-methyl-4-methylsulfanylpyridazine-3-carboxamide], for which the IC50 was 100 to 300 nM in experiment [1] (setting [5]), 100 to 300 nM in experiment [2] (setting [6]) and below 100 nM in experiment [4] (setting [7]).

In the case of `COc1cc2nccc(Oc3ccc(NC(=O)c4cn(CCF)c(C)c(-c5ccc(F)cc5)c4=O)cc3F)c2nc1OC` [Compound 622, N-[4-[(6,7-Dimethoxy-1,5-naphthyridin-4-yl)oxy]-3-fluorophenyl]-1-(2-fluoroethyl)-5-(4-fluorophenyl)-6-methyl-4-oxopyridine-3-carboxamide], the IC50 in experiment [1] (setting [5]), in experiment [2] (setting [6]) and in experiment [4] (setting [7]) was below 100 nM each time.

Turning to `COc1cc2nccc(Oc3ccc(NC(=O)c4cn(CC(F)F)c(C)c(-c5ccc(F)cc5)c4=O)cc3F)c2nc1OC` [Compound 623, 1-(2,2-Difluoroethyl)-N-[4-[(6,7-dimethoxy-1,5-naphthyridin-4-yl)oxy]-3-fluorophenyl]-5-(4-fluorophenyl)-6-methyl-4-oxopyridine-3-carboxamide], the IC50 in experiment [1] (setting [5]), in experiment [2] (setting [6]) and in experiment [4] (setting [7]) was below 100 nM throughout.

On to `COc1cnc2c(Oc3ccc(NC(=O)c4cn(CCF)c(C)c(-c5ccc(F)cc5)c4=O)cc3F)ccnc2c1` [Compound 624, 1-(2-Fluoroethyl)-N-[3-fluoro-4-[(7-methoxy-1,5-naphthyridin-4-yl)oxy]phenyl]-5-(4-fluorophenyl)-6-methyl-4-oxopyridine-3-carboxamide], for which the IC50 in experiment [1] (setting [5]), in experiment [2] (setting [6]) and in experiment [4] (setting [7]) was below 100 nM each time.

On to `COc1cnc2c(Oc3ccc(NC(=O)c4cn(CC(F)F)c(C)c(-c5ccc(F)cc5)c4=O)cc3F)ccnc2c1` [Compound 625, 1-(2,2-Difluoroethyl)-N-[3-fluoro-4-[(7-methoxy-1,5-naphthyridin-4-yl)oxy]phenyl]-5-(4-fluorophenyl)-6-methyl-4-oxopyridine-3-carboxamide], for which the IC50 in experiment [1] (setting [5]), in experiment [2] (setting [6]) and in experiment [4] (setting [7]) was below 100 nM each time.

Take `COc1cnc2c(Oc3ccc(NC(=O)c4cn(C(F)F)c(C)c(-c5ccc(F)cc5)c4=O)cc3F)ccnc2c1` [Compound 626, 1-(Difluoromethyl)-N-[3-fluoro-4-[(7-methoxy-1,5-naphthyridin-4-yl)oxy]phenyl]-5-(4-fluorophenyl)-6-methyl-4-oxopyridine-3-carboxamide]: the IC50 in experiment [1] (setting [5]), in experiment [2] (setting [6]) and in experiment [4] (setting [7]) was below 100 nM each time.

Turning to `COc1cnc2c(Oc3ccc(NC(=O)c4cn(CCF)c(C)c(-c5ccc(F)cc5C)c4=O)cc3)ccnc2c1` [Compound 798, 1-(2-fluoroethyl)-5-(4-fluoro-2-methylphenyl)-N-[4-[(7-methoxy-1,5-naphthyridin-4-yl)oxy]phenyl]-6-methyl-4-oxopyridine-3-carboxamide], the IC50 in experiment [1] (setting [5]), in experiment [2] (setting [6]) and in experiment [4] (setting [7]) was below 100 nM in each case.

Consider `COc1cnc2c(Oc3ccc(NC(=O)c4cn(CCF)c(C)c(-c5ccc(F)cc5C)c4=O)cc3F)ccnc2c1` [Compound 799, 1-(2-fluoroethyl)-N-[3-fluoro-4-[(7-methoxy-1,5-naphthyridin-4-yl)oxy]phenyl]-5-(4-fluoro-2-methylphenyl)-6-methyl-4-oxopyridine-3-carboxamide], for which the IC50 in experiment [1] (setting [5]), in experiment [2] (setting [6]) and in experiment [4] (setting [7]) was below 100 nM each time.

As to `COc1cc2nccc(Oc3ccc(NC(=O)c4cn(CCF)c(C)c(-c5ccc(F)cc5C)c4=O)cc3)c2nc1OC` [Compound 800, N-[4-[(6,7-dimethoxy-1,5-naphthyridin-4-yl)oxy]phenyl]-1-(2-fluoroethyl)-5-(4-fluoro-2-methylphenyl)-6-methyl-4-oxopyridine-3-carboxamide], the IC50 in experiment [1] (setting [5]), in experiment [2] (setting [6]) and in experiment [4] (setting [7]) was below 100 nM throughout.

With `COc1cc2nccc(Oc3ccc(NC(=O)c4cn(CCF)c(C)c(-c5ccc(F)cc5C)c4=O)cc3F)c2nc1OC` [Compound 801, N-[4-[(6,7-dimethoxy-1,5-naphthyridin-4-yl)oxy]-3-fluorophenyl]-1-(2-fluoroethyl)-5-(4-fluoro-2-methylphenyl)-6-methyl-4-oxopyridine-3-carboxamide], the IC50 in experiment [1] (setting [5]), in experiment [2] (setting [6]) and in experiment [4] (setting [7]) was below 100 nM in each case.

For `COc1nc2c(Oc3ccc(NC(=O)c4cn(C)c(C)c(-c5ccc(F)cc5)c4=O)cc3F)ccnc2cc1N` [Compound 803, N-[4-[(7-amino-6-methoxy-1,5-naphthyridin-4-yl)oxy]-3-fluorophenyl]-5-(4-fluorophenyl)-1,6-dimethyl-4-oxopyridine-3-carboxamide], the IC50 in experiment [1] (A-172 cells), in experiment [2] (PC-3 cells) and in experiment [4] (transfected 293A cells) was below 100 nM each time.

On to `COc1nc2c(Oc3ccc(NC(=O)c4c(C)nc(C)c(-c5ccc(F)cc5C)c4O)cc3F)ccnc2cc1N` [Compound 804, N-[4-[(7-amino-6-methoxy-1,5-naphthyridin-4-yl)oxy]-3-fluorophenyl]-5-(4-fluoro-2-methylphenyl)-4-hydroxy-2,6-dimethylpyridine-3-carboxamide], for which the IC50 in experiment [1] (A-172 cells), in experiment [2] (PC-3 cells) and in experiment [4] (transfected 293A cells) was below 100 nM each time.

On to `COc1cc(F)ccc1-c1cn(CCF)c(C)c(C(=O)Nc2ccc(Oc3ccnc4cc(OC)c(OC)nc34)c(F)c2)c1=O` [Compound 805, N-[4-[(6,7-dimethoxy-1,5-naphthyridin-4-yl)oxy]-3-fluorophenyl]-1-(2-fluoroethyl)-5-(4-fluoro-2-methoxyphenyl)-2-methyl-4-oxopyridine-3-carboxamide], for which the IC50 in experiment [1] (A-172 cells), in experiment [2] (PC-3 cells) and in experiment [4] (transfected 293A cells) was below 100 nM in each case.

Turning to `COc1cc2nccc(Oc3ccc(NC(=O)c4c(C)n(CCF)cc(-c5ccc(F)c(C)c5)c4=O)cc3F)c2nc1OC` [Compound 806, N-[4-[(6,7-dimethoxy-1,5-naphthyridin-4-yl)oxy]-3-fluorophenyl]-1-(2-fluoroethyl)-5-(4-fluoro-3-methylphenyl)-2-methyl-4-oxopyridine-3-carboxamide], the half-inhibitory concentration (IC50) in experiment [1] (A-172 cells), in experiment [2] (PC-3 cells) and in experiment [4] (transfected 293A cells) was below 100 nM in each case.

Take `COc1cnc2c(Oc3ccc(NC(=O)c4c(C)n(CCF)cc(-c5ccc(F)c(F)c5)c4=O)cc3F)ccnc2c1` [Compound 807, 5-(3,4-difluorophenyl)-1-(2-fluoroethyl)-N-[3-fluoro-4-[(7-methoxy-1,5-naphthyridin-4-yl)oxy]phenyl]-2-methyl-4-oxopyridine-3-carboxamide]: the figures for the 50% inhibitory concentration (IC50) in experiment [1] (A-172 cells), in experiment [2] (PC-3 cells) and in experiment [4] (transfected 293A cells) were below 100 nM, 100 to 300 nM and below 100 nM, respectively.
